Experimental data as given in PubChem BioAssay (NCI).
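Compound exposure: 48 hours, 5 concentrations, 96-well plates. GI50: concentration for 50% inhibition of growth. The concentration for full growth arrest is given as TGI.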

Columns and labels:
Test in all cases: NCI-60 cell line screen, 48 h
[1] = test system: A498 renal
[2] = test system: CAKI-1 renal
[3] = test system: SK-MEL-2 melanoma
[4] = test system: CCRF-CEM leukemia
[5] = test system: OVCAR-4 ovarian
[6] = test system: LOX IMVI melanoma
[7] = test system: HT29 colon
[8] = test system: MDA-MB-435
[9] = test system: RPMI-8226 leukemia
[10] = test system: TK-10 renal

| Structure (SMILES) | GI50 [1] | TGI [1] | GI50 [2] | TGI [2] | GI50 [3] | TGI [3] | GI50 [4] | TGI [4] | GI50 [5] | TGI [5] | GI50 [6] | TGI [6] | GI50 [7] | TGI [7] | GI50 [8] | TGI [8] | GI50 [9] | TGI [9] | GI50 [10] | TGI [10] |
| --- | --- | --- | --- | --- | --- | --- | --- | --- | --- | --- | --- | --- | --- | --- | --- | --- | --- | --- | --- | --- |
| CCOC(=O)c1ccc(N(CCOS(C)(=O)=O)CCOS(C)(=O)=O)cc1C | 24.1 µM | 73.3 µM | 6.32 µM | 27.1 µM | 28.6 µM | 67.5 µM | 10 µM | > 100 µM | 20.9 µM | 46.8 µM | 29.1 µM | > 100 µM | 26.3 µM | > 100 µM | 48.5 µM | > 100 µM | 22.2 µM | > 100 µM | 50.7 µM | > 100 µM |
| Cc1cccc2c(N=Nc3ccc(S(N)(=O)=O)cc3)c(O)[nH]c12 | > 25 µM | > 25 µM | > 25 µM | > 25 µM | > 25 µM | > 25 µM | > 25 µM | > 25 µM | > 25 µM | > 25 µM | > 25 µM | > 25 µM | > 25 µM | > 25 µM | > 25 µM | > 25 µM | > 25 µM | > 25 µM | > 25 µM | > 25 µM |
| COc1cc(/C=C2\CN(C)C/C(=C\c3cc(OC)c(OC)c(OC)c3)C2=O)cc(OC)c1OC | 0.447 µM | 1.59 µM | 0.288 µM | 0.951 µM | 0.305 µM | 0.959 µM | 0.271 µM | 1.13 µM | 0.342 µM | 1.95 µM | 0.141 µM | 0.37 µM | 0.214 µM | 0.505 µM | 0.287 µM | 1.02 µM | 0.266 µM | 0.841 µM | 0.247 µM | 0.771 µM |
| Cn1cccc1-c1cc(-c2cccs2)[nH]c(=O)c1C#N | 17.9 µM | > 100 µM | > 100 µM | > 100 µM | > 100 µM | > 100 µM | > 100 µM | > 100 µM | > 100 µM | > 100 µM | > 100 µM | > 100 µM | > 100 µM | > 100 µM | > 100 µM | > 100 µM | > 100 µM | > 100 µM | > 100 µM | > 100 µM |
| O=C1C(=O)c2ccccc2-c2ccccc21 | 1.8 µM | 3.32 µM | 1.75 µM | 3.34 µM | 2.02 µM | 4.79 µM | 1.5 µM | 4.85 µM | 1 µM | 2.25 µM | 0.367 µM | 1.79 µM | 3.4 µM | > 100 µM | 0.198 µM | 0.416 µM | 0.583 µM | 2.79 µM | 1.82 µM | 3.3 µM |
| O=C(Nc1ccccc1)Nc1cccc(-n2cc(-c3ccncc3)c(-c3ccc(O)c(Cl)c3)n2)c1 | 2.5 µM | 8.37 µM | 2.92 µM | 14.3 µM | 2.49 µM | 5.63 µM | 3.22 µM | 27.5 µM | 3.45 µM | 25.7 µM | 2.54 µM | 25.6 µM | 2.27 µM | 4.45 µM | 3.03 µM | 17 µM | 2.35 µM | 6.13 µM | 6.91 µM | 54.6 µM |
| COc1ccc(-c2nn(-c3cccc(NC(=O)Nc4ccc(Cl)c(C(F)(F)F)c4)c3)cc2-c2ccncc2)cc1Cl | 2.4 µM | 8.01 µM | 2.18 µM | > 100 µM | 2.77 µM | 5.71 µM | 1.9 µM | 6.4 µM | 2.9 µM | 9.8 µM | 2.95 µM | 10.6 µM | 3.18 µM | 13.1 µM | 2.16 µM | 5.92 µM | 1.43 µM | 5.29 µM | 4.8 µM | 92.2 µM |
| Cc1c2c(nn1C(=O)c1nn(-c3ccc(Cl)cc3)cc1O)-c1ccccc1CC2 | 0.0181 µM | 0.0612 µM | 0.0971 µM | 6.85 µM | 55.4 µM | > 100 µM | 0.0477 µM | > 49.1 µM | 0.246 µM | > 100 µM | 0.0722 µM | > 100 µM | 0.226 µM | > 50.6 µM | 0.0412 µM | > 100 µM | 0.0432 µM | – | 0.0429 µM | > 100 µM |
| CNNCc1ccc(C(=O)NC(C)C)cc1 | – | > 500 µM | > 500 µM | > 500 µM | – | > 500 µM | – | > 500 µM | – | > 500 µM | – | > 500 µM | – | > 500 µM | – | > 500 µM | – | > 500 µM | – | > 500 µM |
| N#CC(=S)Nc1ccc(Cl)c(Cl)c1 | – | 51.8 µM | – | 55.1 µM | – | 33.2 µM | – | 15.2 µM | 5.67 µM | > 100 µM | – | 66.2 µM | – | 55.4 µM | – | > 70.5 µM | – | 13.4 µM | – | > 84.6 µM |
| O=C(O)CC(Nc1ccccc1)C(=O)O (stereo unspecified) | – | > 100 µM | – | > 100 µM | – | > 100 µM | – | > 100 µM | – | > 100 µM | – | > 100 µM | – | > 100 µM | – | > 100 µM | – | > 100 µM | – | > 100 µM |
